Experimental data as given in patent US10273235B2, “Compositions and methods for inhibiting β-lactamase” (LegoChem Biosciences, Inc., priority 2015, dated 2019).
Several values for one entry are separate records, joined by “and”; a condition that tells them apart may be missing. Equal entries are not always repeated.

Assays:
K. pneumoniae 4006 = test: BLI potentiation MIC, K. pneumoniae 4006 (SHV-12, CTX-M-15, TEM-1, OXA-9); assay type: cell-based; conditions: BLI fixed 4 ug/ml; incubation 19 h
Procedure: (§1) MIC90 (μg/mL) is the lowest concentration of an antibiotic that will inhibit the visible growth of 90% of microorganisms after incubation as compared with a control group to which the antibiotic is not treated.
(§2) MIC values were measured by the broth microdilution method developed by the Clinical and Laboratory Standards Institute (CLSI) (see CLSI M07-A9, Methods for Dilution Antimicrobial Susceptibility Test for Bacteria that Grow Aerobically; Approved Standard-Ninth Edition (2012): CLSI, Villanova, Pa.). The in vitro antibacterial activity was measured with respect to the following 9 clinical isolates: P. aeruginosa (3 strains); K. pneumoniae (6 strains). The in vitro antibacterial activity of selected compounds was measured with respect to the following 15 clinical isolates: K. pneumoniae (15 strains).

K. pneumoniae ATCC700603 = test: BLI potentiation MIC, K. pneumoniae ATCC700603 (SHV-3); assay type: cell-based; conditions: BLI fixed 4 ug/ml; incubation 19 h
Procedure: as §1, §2

P. aeruginosa ARC3514 = test: BLI potentiation MIC, P. aeruginosa ARC3514 (KPC-2, OprD−, AmpC); assay type: cell-based; conditions: BLI fixed 4 ug/ml; incubation 19 h
Procedure: as §1, §2

K. pneumoniae 5117 = test: BLI potentiation MIC, K. pneumoniae 5117 (SHV-11, TEM-1); assay type: cell-based; conditions: BLI fixed 4 ug/ml; incubation 19 h
Procedure: as §1, §2

K. pneumoniae NDM-506 = test: BLI potentiation MIC, K. pneumoniae NDM-506; assay type: cell-based; conditions: BLI fixed 4 ug/ml; incubation 19 h
Procedure: as §1, §2

[1] = target: KPC-3 β-lactamase (class A) (Klebsiella pneumoniae, UniProt Q9F663, H272Y); test: Inhibitory activity against β-lactamases (nitrocefin), KPC-3; assay type: biochemical, K. pneumoniae; conditions: 100 μM nitrocefin, 30° C., pH 6.8; read-out: IC50 values, KPC-3
Sequence of KPC-3 β-lactamase (class A) (Q9F663 25-293 H272Y): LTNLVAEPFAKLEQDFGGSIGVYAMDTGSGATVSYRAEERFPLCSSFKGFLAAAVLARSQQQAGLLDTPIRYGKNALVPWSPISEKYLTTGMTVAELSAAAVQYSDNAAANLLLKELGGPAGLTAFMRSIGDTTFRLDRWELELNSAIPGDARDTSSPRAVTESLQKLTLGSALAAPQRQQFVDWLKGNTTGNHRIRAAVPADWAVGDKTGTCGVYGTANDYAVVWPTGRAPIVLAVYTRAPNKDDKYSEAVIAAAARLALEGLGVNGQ
Procedure: (§3) More diluted stocks were prepared as necessary. Enzyme activity was determined by monitoring the change of absorbance at 492 nm using the characteristic molecular extinction coefficient (Δε492=17,400 M^−1 cm^−1) of nitrocefin by a Shimazu UV-1650PC spectrophotometer. The nitrocefin was purchased from OXOID. Kinetic measurements were run at 30° C. in 10 mM MES[2-(N-morpholino)ethanesulfonic acid]buffer (pH 6.8) or 10 mM MES[2-(N-morpholino)ethanesulfonic acid] buffer (pH 6.8), […] BSA and 50 mM sodium bicarbonate. Reactions were performed in 2.5 mL cuvettes with 100 μM nitrocefin and initiated by adding 1.5 nM to 2.5 nM enzyme. The first 180 s of each reaction was used to measure initial rates. Data were evaluated using Microsoft Excel. Concentration dependent inhibition of enzyme was measured using different concentrations of inhibitors resulting from two-fold dilution series. Reaction progress at every concentration of inhibitor was measured in triplicates. IC50 values were calculated using 4-parameter log fits using XL Fit curve fitting software (www.idbs.com) for Excel using the following equation:
(§4) [formula] where y is the remaining enzyme activity (in %) and x is the corresponding concentration. he fitted IC50 parameter is the relative IC50, and is defined as the concentration giving a response half way between the fitted top (B) and bottom (A) of the curve.

K. pneumoniae 101 = test: BLI potentiation MIC, K. pneumoniae 101; assay type: cell-based; conditions: BLI fixed 4 ug/ml; incubation 19 h
Procedure: as §1, §2

E. aerogenes K9911729 = test: MIC of strain used for extraction of enzymes, E. aerogenes K9911729 (CMY-10, TEM-1, SHV-12, AmpC (DQ478697)); assay type: cell-based; conditions: BLI: 4 ug/mL
K. pneumoniae 7586 = test: BLI potentiation MIC, K. pneumoniae 7586; assay type: cell-based; conditions: BLI fixed 4 ug/ml; incubation 19 h
Procedure: as §1, §2

[2] = target: T1, CMY-10 β-lactamase (class C) (Klebsiella aerogenes, UniProt Q99QC1); test: Inhibitory activity against β-lactamases (nitrocefin), CMY-10; assay type: biochemical; conditions: 100 μM nitrocefin, 30° C., pH 6.8; read-out: IC50 values, CMY-10
T1 construct: MICs of bacterial strains used for extraction of enzymes; endogenous in cells
T1 sequence (Q99QC1 24-382): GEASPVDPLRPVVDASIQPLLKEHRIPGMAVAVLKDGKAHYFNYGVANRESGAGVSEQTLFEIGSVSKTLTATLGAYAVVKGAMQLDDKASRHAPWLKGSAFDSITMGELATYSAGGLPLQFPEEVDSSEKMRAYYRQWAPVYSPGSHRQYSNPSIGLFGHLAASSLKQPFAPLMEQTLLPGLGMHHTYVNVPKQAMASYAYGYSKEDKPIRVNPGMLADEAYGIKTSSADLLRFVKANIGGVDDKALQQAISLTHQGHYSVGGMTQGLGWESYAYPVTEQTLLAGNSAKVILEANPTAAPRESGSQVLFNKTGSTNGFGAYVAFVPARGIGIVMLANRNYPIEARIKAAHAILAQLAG
Procedure: as §3, §4

K. pneumoniae MP14 = test: BLI potentiation MIC, K. pneumoniae MP14; assay type: cell-based; conditions: BLI fixed 4 ug/ml; incubation 19 h
Procedure: as §1, §2

[3] = target: T2, OXA-48 β-lactamase (class D) (Klebsiella pneumoniae, UniProt Q6XEC0); test: Inhibitory activity against β-lactamases (nitrocefin), OXA-48; assay type: biochemical; conditions: 100 μM nitrocefin, 30° C., pH 6.8
T2 construct: MICs of bacterial strains used for extraction of enzymes; endogenous in cells; host or cells: bacterial strain carrying OXA-48 (E. coli according to the earlier reading)
T2 sequence (Q6XEC0 23-265, looked up): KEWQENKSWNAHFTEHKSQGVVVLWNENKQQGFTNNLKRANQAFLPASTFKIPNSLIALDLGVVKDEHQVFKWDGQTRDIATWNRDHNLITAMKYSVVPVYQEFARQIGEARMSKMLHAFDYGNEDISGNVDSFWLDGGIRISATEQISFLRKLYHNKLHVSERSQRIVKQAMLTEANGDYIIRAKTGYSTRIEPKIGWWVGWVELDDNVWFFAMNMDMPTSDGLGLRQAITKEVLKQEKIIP
Procedure: as §3, §4

K. pneumoniae 5576 = test: BLI potentiation MIC, K. pneumoniae 5576 (SHV-11, CMY-2, DHA-1, TEM-1); assay type: cell-based; conditions: BLI fixed 4 ug/ml; incubation 19 h
Procedure: as §1, §2

E. coli K0519020 = test: MIC of strain used for extraction of enzymes, E. coli K0519020 (CTX-M-15, TEM-1, OXA-1, AmpC (NC_000913)); assay type: cell-based; conditions: BLI: 4 ug/mL
K. pneumoniae 100 = test: BLI potentiation MIC, K. pneumoniae 100; assay type: cell-based; conditions: BLI fixed 4 ug/ml; incubation 19 h
Procedure: as §1, §2

K. pneumoniae 23 = test: BLI potentiation MIC, K. pneumoniae 23; assay type: cell-based; conditions: BLI fixed 4 ug/ml; incubation 19 h
Procedure: as §1, §2

K. pneumoniae CL5761 = test: MIC of strain used for extraction of enzymes, K. pneumoniae CL5761 (KPC-3, TEM-216, SHV-5); assay type: cell-based; conditions: BLI: 4 ug/mL
Procedure: as §1, §2

K. pneumoniae 5971(KOX) = test: BLI potentiation MIC, K. pneumoniae 5971(KOX); assay type: cell-based; conditions: BLI fixed 4 ug/ml; incubation 19 h
Procedure: as §1, §2

K. pneumoniae 6540 = test: BLI potentiation MIC, K. pneumoniae 6540; assay type: cell-based; conditions: BLI fixed 4 ug/ml; incubation 19 h
Procedure: as §1, §2

K. pneumoniae 3784 = test: BLI potentiation MIC, K. pneumoniae 3784 (SHV-11, SHV-12, DHA-1); assay type: cell-based; conditions: BLI fixed 4 ug/ml; incubation 19 h
Procedure: as §1, §2

K. pneumoniae 89 = test: BLI potentiation MIC, K. pneumoniae 89; assay type: cell-based; conditions: BLI fixed 4 ug/ml; incubation 19 h
Procedure: as §1, §2

P. aeruginosa ARC3506 = test: BLI potentiation MIC, P. aeruginosa ARC3506 (VEB-1, OXA-10, OprD−, AmpC); assay type: cell-based; conditions: BLI fixed 4 ug/ml; incubation 19 h
Procedure: as §1, §2

K. pneumoniae 4248 = test: BLI potentiation MIC, K. pneumoniae 4248 (SHV-11, CTX-M-15, TEM-1, OXA-1); assay type: cell-based; conditions: BLI fixed 4 ug/ml; incubation 19 h
Procedure: as §1, §2

K. pneumoniae 5216 = test: BLI potentiation MIC, K. pneumoniae 5216 (TEM-1A); assay type: cell-based; conditions: BLI fixed 4 ug/ml; incubation 19 h
Procedure: as §1, §2

P. aeruginosa ATCC27853 = test: BLI potentiation MIC (broth microdilution), P. aeruginosa ATCC27853 (PoxB, AmpC); assay type: cell-based; conditions: BLI fixed 4 ug/ml; incubation 19 h
Procedure: as §1, §2

K. pneumoniae 6839 = test: BLI potentiation MIC, K. pneumoniae 6839 (SHV-11, SHV-12, DHA-1); assay type: cell-based; conditions: BLI fixed 4 ug/ml; incubation 19 h
Procedure: as §1, §2

NCCONC(=O)[C@@H]1CC[C@@H]2CN1C(=O)N2OS(=O)(=O)O [OP-595]
MIC of Ceftazidime with BLI (K. pneumoniae 4006): 0.125 mg/L
MIC of LCB10-0200 with BLI (K. pneumoniae 4006): 0.03125 μg/mL and 0.0625 μg/mL
MIC of Meropenem with BLI (K. pneumoniae 4006): 0.0625 mg/L
MIC of Ceftazidime with BLI (K. pneumoniae ATCC700603): 0.125 mg/L
MIC of LCB10-0200 with BLI (K. pneumoniae ATCC700603): 0.125 μg/mL
MIC of Meropenem with BLI (K. pneumoniae ATCC700603): 0.125 mg/L and 0.0625 mg/L
MIC of Ceftazidime with BLI (P. aeruginosa ARC3514): 8 mg/L
MIC of LCB10-0200 with BLI (P. aeruginosa ARC3514): 0.125 μg/mL and 0.25 μg/mL
MIC of Meropenem with BLI (P. aeruginosa ARC3514): >64 mg/L
MIC of LCB10-0200 with BLI (K. pneumoniae 5117): 0.0625 μg/mL
MIC of Meropenem with BLI (K. pneumoniae 5117): 0.5 mg/L and 0.25 mg/L
MIC of Ceftazidime with BLI (K. pneumoniae NDM-506): 0.125 mg/L
MIC of Meropenem with BLI (K. pneumoniae NDM-506): >64 mg/L
IC50 [1]: 0.0637 µM
MIC of LCB10-0200 with BLI (K. pneumoniae 101): 0.25 μg/mL
MIC of Meropenem with BLI (K. pneumoniae 101): 0.125 mg/L and 0.0625 mg/L
MIC of LCB10-0200 with BLI (E. aerogenes K9911729): <0.0312 μg/mL
MIC of Meropenem with BLI (E. aerogenes K9911729): <0.0312 mg/L
MIC of LCB10-0200 with BLI (K. pneumoniae 7586): 0.03125 μg/mL and 0.0625 μg/mL
IC50 [2]: 42.6 µM
MIC of LCB10-0200 with BLI (K. pneumoniae MP14): 0.03125 μg/mL and <0.0312 μg/mL
IC50 [3]: 44.2 µM
MIC of Ceftazidime with BLI (K. pneumoniae 5576): 0.125 mg/L
MIC of LCB10-0200 with BLI (K. pneumoniae 5576): 0.0625 μg/mL
MIC of Meropenem with BLI (K. pneumoniae 5576): 0.03125 mg/L and 0.0625 mg/L
MIC of LCB10-0200 with BLI (E. coli K0519020): 0.0625 μg/mL
MIC of Meropenem with BLI (E. coli K0519020): 0.125 mg/L
MIC of LCB10-0200 with BLI (K. pneumoniae 100): 0.0625 μg/mL
MIC of LCB10-0200 with BLI (K. pneumoniae 23): 1 μg/mL
MIC of LCB10-0200 with BLI (K. pneumoniae CL5761): 0.25 μg/mL
MIC of Meropenem with BLI (K. pneumoniae CL5761): 1 mg/L
MIC of LCB10-0200 with BLI (K. pneumoniae 5971(KOX)): 8 μg/mL and 16 μg/mL
MIC of LCB10-0200 with BLI (K. pneumoniae 6540): 0.0625 μg/mL
MIC of Meropenem with BLI (K. pneumoniae 6540): 0.125 mg/L and 0.0625 mg/L
MIC of Ceftazidime with BLI (K. pneumoniae 3784): 0.5 mg/L
MIC of LCB10-0200 with BLI (K. pneumoniae 3784): 0.0625 μg/mL
MIC of Meropenem with BLI (K. pneumoniae 3784): 0.25 mg/L
MIC of LCB10-0200 with BLI (K. pneumoniae 89): 0.0625 μg/mL
MIC of Ceftazidime with BLI (P. aeruginosa ARC3506): 32 mg/L
MIC of LCB10-0200 with BLI (P. aeruginosa ARC3506): 0.25 μg/mL
MIC of Meropenem with BLI (P. aeruginosa ARC3506): 64 mg/L
MIC of Ceftazidime with BLI (K. pneumoniae 4248): 0.0625 mg/L
MIC of LCB10-0200 with BLI (K. pneumoniae 4248): <0.03125 μg/mL
MIC of Meropenem with BLI (K. pneumoniae 4248): 0.0625 mg/L
MIC of LCB10-0200 with BLI (K. pneumoniae 5216): 0.25 μg/mL and 0.5 μg/mL
MIC of Meropenem with BLI (K. pneumoniae 5216): 2 mg/L
MIC of Ceftazidime with BLI (P. aeruginosa ATCC27853): 2 mg/L
MIC of LCB10-0200 with BLI (P. aeruginosa ATCC27853): 0.25 μg/mL and 0.5 μg/mL
MIC of Meropenem with BLI (P. aeruginosa ATCC27853): 2 mg/L
MIC of LCB10-0200 with BLI (K. pneumoniae 6839): 0.0625 μg/mL
